Activity calls are given as the source filed them. The rule behind the calls is not given here.

For orientation: Kd means the equilibrium constant for the complex coming apart. One may read the IC50 as the midpoint of a concentration-inhibition curve.

One assay relates to TALL-1. The assay can be described thus: Cytotoxicity against human TALL-1 cells assessed as cell viability at 5 uM by CellTiter-Glo luminescent assay. The assay is classed as functional. The following applies: read-out: Activity.
The target in assay [1] is Bromodomain-containing protein 3 (Homo sapiens, UniProt Q15059). The assay can be described thus: Binding affinity to human BRD3 domain 1 assessed as dissociation constant by isothermal titration calorimetry assay. (In general: ITC needs no label: the signal is the heat of the interaction.)
Assay [2] has as its system HPBALL. The assay can be described thus: Induction of apoptosis in human HPBALL cells assessed as accumulation at sub-G1 phase at 5 uM after 72 hrs by flow cytometry. Type of assay: functional, cell-based.
The next assay concerns K562. The assay can be described thus: Anticancer activity against human K562 cells assessed as cell growth inhibition by CellTiter-Glo luminescent assay. The assay is classed as functional, cell-based. Background: ATP-based viability assays read luminescence as a measure of living cells.
The target in another assay is Histone deacetylase 1 (Homo sapiens, UniProt Q13547). The assay can be described thus: Inhibition of human recombinant HDAC1 assessed as fluorescence using fluorogenic substrate ZMAL incubated for 90 min by microplate reader.
The target of the next assay is Histone deacetylase 2 (Homo sapiens, UniProt Q92769). The assay can be described thus: Inhibition of human HDAC2 assessed as target activity using fluorogenic substrate ZMAL for 90 min by microplate reader at 355nm.
The test system of assay [3] is HL-60. The assay can be described thus: Anticancer activity against human HL-60 cells assessed as cell growth inhibition by CellTiter-Glo luminescent assay. Type of assay: functional, cell-based.
For assay [4], the system named is HPBALL. The assay can be described thus: Anticancer activity against human HPBALL cells assessed as cell growth inhibition by CellTiter-Glo luminescent assay. The assay is classed as functional, cell-based.
In the next assay the target is Histone deacetylase 3 (Homo sapiens, UniProt O15379). The assay can be described thus: Inhibition of human HDAC3 assessed as target activity using fluorogenic substrate ZMAL for 90 min by microplate reader at 355nm.
In assay [5] the target is T1, Histone deacetylase (Homo sapiens) (UniProt Q13547+O15379+Q9UBN7+Q92769+Q9UQL6+Q8WUI4+Q9BY41+Q96DB2+P56524+Q9UKV0+Q969S8). The assay can be described thus: Inhibition of HDAC in human K562 cells assessed as decrease in MYC expression measured after 24 to 72 hrs by Western blot analysis. Type of assay: cell-based. The following applies: time 24-72 hrs.
For assay [6], the target named is T1, Histone deacetylase (Homo sapiens). The assay can be described thus: Inhibition of HDAC in human K562 cells assessed as increase in acetylated histone H3 measured after 48 hrs by Western blot analysis. Type of assay: cell-based. (In general: A western blot detects proteins with antibodies after separation by electrophoresis.)
For assay [7], the target named is T2, Bromodomain-containing protein 2 (Homo sapiens, UniProt P25440). The assay can be described thus: Binding affinity to human BRD2 domain 1 assessed as dissociation constant by isothermal titration calorimetry assay.
Assay [8] addresses T3, Bromodomain-containing protein 7 (Homo sapiens, UniProt Q9NPI1).
T3 sequence (Q9NPI1 whole entry): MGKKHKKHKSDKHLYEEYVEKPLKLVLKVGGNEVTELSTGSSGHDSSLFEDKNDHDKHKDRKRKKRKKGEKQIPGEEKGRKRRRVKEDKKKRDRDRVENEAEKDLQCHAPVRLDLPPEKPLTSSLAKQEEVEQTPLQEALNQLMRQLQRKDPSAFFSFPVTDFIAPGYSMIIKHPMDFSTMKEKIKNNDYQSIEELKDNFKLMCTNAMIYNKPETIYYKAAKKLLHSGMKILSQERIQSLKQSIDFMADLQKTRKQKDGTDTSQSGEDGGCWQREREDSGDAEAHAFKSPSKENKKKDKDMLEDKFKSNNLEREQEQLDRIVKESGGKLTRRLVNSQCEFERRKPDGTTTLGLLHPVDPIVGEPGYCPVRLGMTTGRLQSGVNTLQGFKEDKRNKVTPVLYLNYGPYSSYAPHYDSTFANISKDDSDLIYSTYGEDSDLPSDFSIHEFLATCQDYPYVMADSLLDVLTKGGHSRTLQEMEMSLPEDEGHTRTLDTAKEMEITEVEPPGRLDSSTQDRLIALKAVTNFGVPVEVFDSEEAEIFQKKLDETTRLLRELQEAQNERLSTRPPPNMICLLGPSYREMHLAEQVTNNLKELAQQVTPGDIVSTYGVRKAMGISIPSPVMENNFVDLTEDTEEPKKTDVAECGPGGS
The assay can be described thus: Binding affinity to human BRD7 assessed as dissociation constant by isothermal titration calorimetry assay.

Assay [9] deals with HPBALL. The assay can be described thus: Induction of apoptosis in human HPBALL cells assessed as decrease in MYC protein levels at 5 uM after 24 hrs by Western blot analysis. Type of assay: functional, cell-based.
A further assay deals with MOLT-4. The assay can be described thus: Cytotoxicity against human MOLT-4 cells assessed as cell viability at 5 uM by CellTiter-Glo luminescent assay. The assay is classed as functional. The following applies: read-out: Activity.
In assay [10] the target is Bromodomain-containing protein 4 (Homo sapiens, UniProt O60885). The assay can be described thus: Binding affinity to human BRD4 domain 1 (unknown origin) assessed as dissociation constant by isothermal titration calorimetry assay. The following applies: read-out: Kd.
Assay [11] concerns the target T2, Bromodomain-containing protein 2. The assay can be described thus: Binding affinity to human BRD2 domain 2 assessed as dissociation constant by isothermal titration calorimetry assay.
Assay [12] relates to HPBALL. The assay can be described thus: Induction of apoptosis in human HPBALL cells assessed as increase in caspase3/7 activity at 5 uM after 48 hrs by luminescent based Glo assay. The assay is classed as functional, cell-based.
A further assay concerns REH. The assay can be described thus: Anticancer activity against human REH cells assessed as cell growth inhibition by CellTiter-Glo luminescent assay. Type of assay: functional, cell-based.
Assay [13] concerns HL-60. The assay can be described thus: Cytotoxicity against human HL-60 cells assessed as cell viability at 5 uM by CellTiter-Glo luminescent assay. The assay is classed as functional. The following applies: read-out: Activity.

T2 sequence (P25440 whole entry, the tested form may be a part): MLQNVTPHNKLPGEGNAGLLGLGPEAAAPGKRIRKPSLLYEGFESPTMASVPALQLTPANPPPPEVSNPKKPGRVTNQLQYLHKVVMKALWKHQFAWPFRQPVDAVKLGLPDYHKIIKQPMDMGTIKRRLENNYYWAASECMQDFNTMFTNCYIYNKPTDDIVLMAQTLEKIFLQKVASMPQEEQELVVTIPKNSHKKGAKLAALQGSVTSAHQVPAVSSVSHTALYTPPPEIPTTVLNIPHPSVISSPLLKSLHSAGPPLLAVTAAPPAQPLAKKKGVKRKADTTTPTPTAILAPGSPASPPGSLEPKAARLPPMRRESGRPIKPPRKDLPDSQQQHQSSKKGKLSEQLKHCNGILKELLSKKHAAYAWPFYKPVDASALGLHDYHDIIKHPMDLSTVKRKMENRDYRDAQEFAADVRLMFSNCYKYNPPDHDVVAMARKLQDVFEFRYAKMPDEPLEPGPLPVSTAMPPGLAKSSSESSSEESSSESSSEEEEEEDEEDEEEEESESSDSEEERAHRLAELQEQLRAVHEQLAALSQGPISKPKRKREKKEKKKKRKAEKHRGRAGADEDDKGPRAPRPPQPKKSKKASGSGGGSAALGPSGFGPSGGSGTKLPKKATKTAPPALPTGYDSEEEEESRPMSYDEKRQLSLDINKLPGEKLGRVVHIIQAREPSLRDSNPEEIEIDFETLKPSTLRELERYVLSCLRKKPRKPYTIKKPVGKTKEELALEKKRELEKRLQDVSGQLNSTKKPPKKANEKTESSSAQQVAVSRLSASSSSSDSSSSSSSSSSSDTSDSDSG
Chain of Histone deacetylase 2 (Q92769 whole entry): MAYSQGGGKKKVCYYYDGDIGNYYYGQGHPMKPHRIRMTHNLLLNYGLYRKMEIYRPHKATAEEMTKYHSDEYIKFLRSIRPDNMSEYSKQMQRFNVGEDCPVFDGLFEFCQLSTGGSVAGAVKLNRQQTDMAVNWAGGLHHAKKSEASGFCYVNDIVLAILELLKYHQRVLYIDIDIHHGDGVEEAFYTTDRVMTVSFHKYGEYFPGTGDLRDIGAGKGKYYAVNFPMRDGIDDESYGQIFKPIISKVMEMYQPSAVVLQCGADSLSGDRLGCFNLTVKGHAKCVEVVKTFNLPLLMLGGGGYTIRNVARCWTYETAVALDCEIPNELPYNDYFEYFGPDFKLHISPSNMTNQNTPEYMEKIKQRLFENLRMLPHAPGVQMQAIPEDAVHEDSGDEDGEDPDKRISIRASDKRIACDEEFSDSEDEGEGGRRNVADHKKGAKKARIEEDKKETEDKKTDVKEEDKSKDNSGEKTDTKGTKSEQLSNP
Chain of Bromodomain-containing protein 3 (Q15059 whole entry, the tested form may be a part): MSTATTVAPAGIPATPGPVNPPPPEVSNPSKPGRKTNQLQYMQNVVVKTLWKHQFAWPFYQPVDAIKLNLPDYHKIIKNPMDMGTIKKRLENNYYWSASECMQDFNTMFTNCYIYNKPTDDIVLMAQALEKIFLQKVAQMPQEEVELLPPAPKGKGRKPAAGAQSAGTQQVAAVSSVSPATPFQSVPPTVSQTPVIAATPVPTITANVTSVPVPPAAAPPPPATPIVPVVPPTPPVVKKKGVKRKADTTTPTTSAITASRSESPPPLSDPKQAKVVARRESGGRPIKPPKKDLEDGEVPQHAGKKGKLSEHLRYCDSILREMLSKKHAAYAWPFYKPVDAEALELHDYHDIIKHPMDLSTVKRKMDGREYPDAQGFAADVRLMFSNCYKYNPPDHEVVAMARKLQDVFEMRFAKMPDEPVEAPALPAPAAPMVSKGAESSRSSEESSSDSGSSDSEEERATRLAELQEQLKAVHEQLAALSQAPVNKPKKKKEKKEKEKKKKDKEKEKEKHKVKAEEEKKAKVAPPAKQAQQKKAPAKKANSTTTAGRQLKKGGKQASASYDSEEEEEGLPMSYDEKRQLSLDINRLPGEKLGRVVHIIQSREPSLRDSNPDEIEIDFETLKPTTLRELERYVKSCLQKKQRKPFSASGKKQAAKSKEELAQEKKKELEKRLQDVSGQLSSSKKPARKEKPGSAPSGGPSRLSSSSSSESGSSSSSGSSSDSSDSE
Chain of Histone deacetylase 1 (Q13547 whole entry): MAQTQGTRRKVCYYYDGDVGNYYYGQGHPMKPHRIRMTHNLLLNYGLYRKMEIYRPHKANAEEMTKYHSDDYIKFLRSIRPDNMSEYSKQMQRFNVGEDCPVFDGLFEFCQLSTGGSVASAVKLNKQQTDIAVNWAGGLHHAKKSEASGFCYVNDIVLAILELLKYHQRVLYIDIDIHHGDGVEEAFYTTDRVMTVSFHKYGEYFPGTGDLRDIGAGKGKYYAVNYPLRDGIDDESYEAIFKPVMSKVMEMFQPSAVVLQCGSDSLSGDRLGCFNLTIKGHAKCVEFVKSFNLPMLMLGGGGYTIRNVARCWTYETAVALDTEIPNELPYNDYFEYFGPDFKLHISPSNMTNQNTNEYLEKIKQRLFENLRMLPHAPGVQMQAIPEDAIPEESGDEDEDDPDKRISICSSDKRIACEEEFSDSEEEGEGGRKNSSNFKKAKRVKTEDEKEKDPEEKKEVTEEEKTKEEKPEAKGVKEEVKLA
Chain of Histone deacetylase 3 (O15379 whole entry): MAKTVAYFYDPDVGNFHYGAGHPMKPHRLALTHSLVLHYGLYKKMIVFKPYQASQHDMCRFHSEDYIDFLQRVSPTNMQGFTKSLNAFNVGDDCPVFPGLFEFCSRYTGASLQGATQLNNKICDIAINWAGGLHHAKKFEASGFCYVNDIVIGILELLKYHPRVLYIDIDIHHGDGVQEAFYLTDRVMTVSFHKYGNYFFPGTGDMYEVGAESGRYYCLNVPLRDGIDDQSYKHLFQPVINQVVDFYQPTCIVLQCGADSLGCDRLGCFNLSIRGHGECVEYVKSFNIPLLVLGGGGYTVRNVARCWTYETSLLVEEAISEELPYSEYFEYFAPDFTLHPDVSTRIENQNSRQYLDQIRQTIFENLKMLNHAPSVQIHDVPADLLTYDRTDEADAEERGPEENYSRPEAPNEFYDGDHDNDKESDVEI

With `CCc1c(C(=O)Nc2cc(/C=C/C(=O)NO)ccc2OC)[nH]c(C)c1C(C)=O`, the viability at 5 µM in the assay with TALL-1 stood at 15.1%; with MOLT-4, 3.5%; with HL-60 [13] it was 22.1%. Moreover, the Kd is 5650 nM in assay [1]; 7400 nM in assay [7]; 8500 nM in [8]; 2980 nM in assay [10]; 3300 nM in [11]. The outcome (with HPBALL [2]; in [5]; in [6]; in the assay with HPBALL [9]) was Active. Further, the IC50 in the assay on K562 amounted to 3400 nM; at Histone deacetylase 1 it was 179 nM; on Histone deacetylase 2 it was 359 nM; in the assay with HL-60 [3], 7820 nM; in the assay on HPBALL [4], 6790 nM; at Histone deacetylase 3 it was 119 nM. For the same compound, the IC50 in the assay on REH was more than 25000 nM. Also, in the assay with HPBALL [12], the inhibition entry was “Active”.
With `Cc1[nH]c(C(=O)Nc2cc(S(=O)(=O)N3CCOCC3)ccc2OCCCCCCCC(=O)NO)c2c1C(=O)CCCC2`, the viability at 5 µM with TALL-1 is 50%; in the assay with MOLT-4 it was 1.7%; with HL-60 [13] it was 35.9%. In addition, the Kd in assay [1] worked out at 37 nM; in [7], 27 nM; in assay [8], 125 nM; in assay [10], 76 nM; in assay [11], 67 nM. Also, the outcome (in the assay with HPBALL [2]; in [6]; in the assay with HPBALL [9]; in the assay with HPBALL [12]) was Active. The IC50 came out at 5990 nM in the assay with K562; 163 nM at Histone deacetylase 1; 534 nM on Histone deacetylase 2; 2750 nM with HL-60 [3]; 7130 nM in the assay with HPBALL [4]; 296 nM at Histone deacetylase 3. Besides, in the assay on REH, the IC50 came out at 7790 nM. Besides, the inhibition result in [5] was “Active”.
In the case of `COc1ccc(S(=O)(=O)n2ccc(/C=C/C(=O)NO)c2)cc1NC(=O)c1[nH]c(C)c2c1CCCCC2=O`, the viability at 5 µM amounted to 10.6% with TALL-1, 4% in the assay on MOLT-4 and 42.3% in the assay on HL-60 [13]. Besides, the Kd turned out to be 1500 nM in assay [1]; 230 nM in assay [7]; 230 nM in assay [8]; 790 nM in assay [10]; 3100 nM in assay [11]. The result (with HPBALL [2]; in [6]; in the assay with HPBALL [9]; with HPBALL [12]) was Active. In addition, the IC50 with K562 was 2900 nM; at Histone deacetylase 1, 93 nM; on Histone deacetylase 2, 208 nM; in the assay with HL-60 [3], 4630 nM; in the assay on HPBALL [4] it was 6310 nM; on Histone deacetylase 3, 64 nM. Besides, the IC50 in the assay on REH is 9760 nM. In addition, the inhibition result in assay [5] was “Active”.
